Experimental data published in patent US20140315876A1, “BETA-LACTAMASE INHIBITORS” (priority 2013, published 2014).
Structures can show the parent of a compound that is named as a salt.

Columns and labels:
[1] = tested on: bacterial strains that express the class D cephalosporinase OXA-15; assay: Synergy MIC / standard BLI potentiation MIC assay, strains expressing OXA-15; assay type: cell-based, E. coli; details: in the presence of a β-lactam; comparator Avibactam (comparator compound CCC)
Procedure: (§1) The experimental protocol was performed according to Clinical and Laboratory Standards Institute (CLSI) guidelines with modifications as described below (CLSI guidelines can be derived from the CLSI document M07-A9 published in January 2012: “Methods for Dilution Antimicrobial Susceptibility Tests for Bacteria That Grow Aerobically; Approved Standard-Ninth Edition”).
(§2) To prepare for MIC testing, frozen glycerol stocks of clinical isolates (Klebsiella pneumoniae, Eschericia coli, Enterobacter spp, Citrobacter spp, or Pseudomonas aeruginosa) were used to streak for isolated colonies on rich, non-selective, tryptic soy agar containing 5% sheep's blood (TSAB). Frozen glycerol stocks of laboratory engineered, isogenic E. coli strains, which contain cloned β-lactamase expressing plasmids were used to streak for isolated colonies on rich, selective LB agar supplemented with 25 μg/mL tetracycline to maintain the plasmid. All strains were incubated at 37° C. for 18-24 hrs.
(§3) On the day of testing, primary cultures were started by scraping off 5-10 colonies from the TSAB plates containing clinical strains or the tetracycline supplemented LB plates containing engineered strains. The clinical strain material was suspended in ˜5 mL of cation adjusted Mueller Hinton Broth (CAMHB) in 14 mL culture tubes. The engineered strain material was suspended in CAMHB (supplemented with 25 μg/mL tetracycline) in 14 mL culture tubes. All strains were incubated at 37° C. with aeration (200 rpm) for ˜2 hrs until the optical density at 600 nm (OD600) was ≧0.1.
(§4) The two compound components of the assay were each diluted in CAMHB and added to the 96-well broth microdilution assay plates. 50 μL of the β-lactam was added to each well of the assay plate in 2-fold dilutions with final concentrations ranging from 128 to 0.13 μg/mL. 25 μL of the BLI compound was added to all wells in the broth microdilution plates at a final concentration of 4 μg/mL. Inoculum cultures were prepared by standardizing the primary cultures to OD600=0.1 and then adding 20 μL of the adjusted primary culture per 1 mL CAMHB for clinical strains or CAMHB (supplemented with tetracycline at 100 μg/mL) for engineered strains, so that the final inoculum density was ˜10^5 colony forming units per milliliter. Diluted inoculum cultures were used to inoculate 25 μL per well in 96-well broth microdilution assay plates. The final volume of each well was 100 μL and contained a β-lactam at different concentrations, a BLI compound at 4 μg/mL concentration, the bacterial culture at an OD600 of approximately 0.001 and when necessary tetracycline at 25 μg/mL.
(§5) Plates were incubated for 18-20 hours at 37° C. with aeration (200 rpm). Following incubation, growth was confirmed visually placing plates over a viewing apparatus (stand with a mirror underneath) and then OD600 was measured using a SpectraMax 340PC384 plate reader (Molecular Devices, Sunnyvale, Calif.). Growth was defined as turbidity that could be detected with the naked eye or achieving minimum OD600 of 0.1. MIC values were defined as the lowest concentration producing no visible turbidity.
(§6) The synergy MIC (sMIC) assay determines the concentration of the BLI required to potentiate the activity of a fixed concentration of a β-lactam antibiotic against β-lactamase producing bacterial strains. The experimental protocol was performed according to Clinical and Laboratory Standards Institute (CLSI) guidelines with modifications as described below (CLSI guidelines can be derived from the CLSI document M07-A9 published in January 2012: “Methods for Dilution Antimicrobial Susceptibility Tests for Bacteria That Grow Aerobically; Approved Standard-Ninth Edition”). […]

[2] = tested on: bacterial strains that express KPC β-lactamases; assay: Synergy MIC / standard BLI potentiation MIC assay, strains expressing KPC β-lactamases; assay type: cell-based; details: more active for at least one KPC strain and/or better spectrum of activity than Avibactam; in the presence of a β-lactam
Procedure: as §1, §2, §3, §4, §5, §6

Compound	activity against bacterial strains that express the class D cephalosporinase OXA-15, compared with Avibactam [1]	activity and/or spectrum of activity against bacterial strains that express KPC β-lactamases, compared with Avibactam [2]
O=C1N2C[C@@H](CC[C@H]2c2nnco2)N1OS(=O)(=O)O [Compound 701, (2S,5R)-2-(1,3,4-oxadiazol-2-yl)-7-oxo-1,6-diazabicyclo[3.2.1]octan-6-yl hydrogen sulfate]	more active than Avibactam	more active than Avibactam
NCc1nnc([C@@H]2CC[C@@H]3CN2C(=O)N3OS(=O)(=O)O)o1 [Compound 702, (2S,5R)-2-(5-(aminomethyl)-1,3,4-oxadiazol-2-yl)-7-oxo-1,6-diazabicyclo[3.2.1]octan-6-yl hydrogen sulfate]	more active than Avibactam	more active than Avibactam
NCCc1nnc([C@@H]2CC[C@@H]3CN2C(=O)N3OS(=O)(=O)O)o1 [Compound 703, (2S,5R)-2-(5-(2-aminoethyl)-1,3,4-oxadiazol-2-yl)-7-oxo-1,6-diazabicyclo[3.2.1]octan-6-yl hydrogen sulfate]	more active than Avibactam	more active than Avibactam
N=C(N)NCCc1nnc([C@@H]2CC[C@@H]3CN2C(=O)N3OS(=O)(=O)O)o1 [Compound 705, (2S,5R)-2-(5-(2-guanidinoethyl)-1,3,4-oxadiazol-2-yl)-7-oxo-1,6-diazabicyclo[3.2.1]octan-6-yl hydrogen sulfate]	more active than Avibactam	more active than Avibactam
NC(=O)c1nnc([C@@H]2CC[C@@H]3CN2C(=O)N3OS(=O)(=O)O)o1 [Compound 706, (2S,5R)-2-(5-carbamoyl-1,3,4-oxadiazol-2-yl)-7-oxo-1,6-diaza-bicyclo[3.2.1]octan-6-yl hydrogen sulfate]	more active than Avibactam	more active than Avibactam
O=C1N2C[C@@H](CC[C@H]2c2nnc(C3CNC3)o2)N1OS(=O)(=O)O [Compound 708, (2S,5R)-2-(5-(azetidin-3-yl)-1,3,4-oxadiazol-2-yl)-7-oxo-1,6-diazabicyclo[3.2.1]octan-6-yl hydrogen sulfate]	more active than Avibactam	more active than Avibactam
N=C(N)N1CC(c2nnc([C@@H]3CC[C@@H]4CN3C(=O)N4OS(=O)(=O)O)o2)C1 [Compound 709, (2S,5R)-2-(5-(1-carbamimidoylazetidin-3-yl)-1,3,4-oxadiazol-2-yl)-7-oxo-1,6-diazabicyclo[3.2.1]octan-6-yl hydrogen sulfate]	more active than Avibactam	more active than Avibactam
O=C1N2C[C@@H](CC[C@H]2c2nnc(C3CCNC3)o2)N1OS(=O)(=O)O (stereo partly drawn) [Compound 710, (2S,5R)-7-oxo-2-(5-(pyrrolidin-3-yl)-1,3,4-oxadiazol-2-yl)-1,6-diazabicyclo[3.2.1]octan-6-yl hydrogen sulfate]	more active than Avibactam	more active than Avibactam
O=C1N2C[C@@H](CC[C@H]2c2nnc(C3CCNCC3)o2)N1OS(=O)(=O)O [Compound 711, (2S,5R)-7-oxo-2-(5-(piperidin-4-yl)-1,3,4-oxadiazol-2-yl)-1,6-diazabicyclo[3.2.1]octan-6-yl hydrogen sulfate]	more active than Avibactam	more active than Avibactam
NCCCc1nnc([C@@H]2CC[C@@H]3CN2C(=O)N3OS(=O)(=O)O)o1 [Compound 720, (2S,5R)-2-(5-(3-aminopropyl)-1,3,4-oxadiazol-2-yl)-7-oxo-1,6-diazabicyclo[3.2.1]octan-6-yl hydrogen sulfate]	more active than Avibactam	more active than Avibactam
N=C(N)NCc1nnc([C@@H]2CC[C@@H]3CN2C(=O)N3OS(=O)(=O)O)s1 [Compound 721, (2S,5R)-2-(5-(guanidinomethyl)-1,3,4-thiadiazol-2-yl)-7-oxo-1,6-diazabicyclo[3.2.1]octan-6-yl hydrogen sulfate]	more active than Avibactam	more active than Avibactam
CNCCc1nnc([C@@H]2CC[C@@H]3CN2C(=O)N3OS(=O)(=O)O)o1 [Compound 722, (2S,5R)-2-(5-(2-(methylamino)ethyl)-1,3,4-oxadiazol-2-yl)-7-oxo-1,6-diazabicyclo[3.2.1]octan-6-yl hydrogen sulfate]	more active than Avibactam	more active than Avibactam
N=C(N)NCC1(c2nnc([C@@H]3CC[C@@H]4CN3C(=O)N4OS(=O)(=O)O)o2)CC1 [Compound 723, (2S,5R)-2-(5-(1-(guanidinomethyl)cyclopropyl)-1,3,4-oxadiazol-2-yl)-7-oxo-1,6-diazabicyclo[3.2.1]octan-6-yl hydrogen sulfate]	more active than Avibactam	more active than Avibactam
NC1(Cc2nnc([C@@H]3CC[C@@H]4CN3C(=O)N4OS(=O)(=O)O)o2)CC1 [Compound 724, (2S,5R)-2-(5-((1-aminocyclopropyl)methyl)-1,3,4-oxadiazol-2-yl)-7-oxo-1,6-diazabicyclo[3.2.1]octan-6-yl hydrogen sulfate]	more active than Avibactam	more active than Avibactam
O=C1N2C[C@@H](CC[C@H]2c2nnc(CNC3CNC3)o2)N1OS(=O)(=O)O [Compound 726, (2S,5R)-2-(5-((azetidin-3-ylamino)methyl)-1,3,4-oxadiazol-2-yl)-7-oxo-1,6-diazabicyclo[3.2.1]octan-6-yl hydrogen sulfate]	more active than Avibactam	more active than Avibactam
NC1CCN(CCc2nnc([C@@H]3CC[C@@H]4CN3C(=O)N4OS(=O)(=O)O)o2)CC1 [Compound 775, (2S,5R)-2-(5-(2-(4-aminopiperidin-1-yl)ethyl)-1,3,4-oxadiazol-2-yl)-7-oxo-1,6-diazabicyclo[3.2.1]octan-6-yl hydrogen sulfate]	–	more active than Avibactam
